Measured values as given in patent US10562902B2, “IRAK4 inhibitor and use thereof” (BEIJING HANMI PHARMACEUTICAL CO., LTD., priority 2015, dated 2020).

What follows are compounds tested against IRAK4 kinase (Homo sapiens (Human), UniProt Q9NWZ3) (assay: IRAK4 kinase activity inhibition assay). Settings: ADP-Glo kinase assay, 10 μM ATP, MBP substrate.
Type: biochemical
Procedure: IRAK4 kinase (purchased from Life Technologies, Cat. No.: PR5612U) was diluted to 2 folds of the final concentration (the final concentration is […]) with reaction buffer (40 mM Tris-HC1, pH 7.5; 20 mM MgCl2; 0.1 mg/mL BSA; 1 mM DTT), and added to a 384-well plate at 5 μL/well. The test drugs were 10-fold serial diluted from 10 μM to set six concentration points and added to the test wells of the 384-well plate at 2.5 μL/well. After incubation for 10 min at 25° C., 10 μM of ATP and 0.1 μg/μL of an enzyme reaction substrate, myelin basic protein MBP (purchased from Signal Chem, Cat. No.: M42-51N) were added at 2.5 μL/well, and reacted at 25° C. for 60 minutes. After the reaction was completed, the kinase activity assay was performed using the ADP-Glo™ kinase assay kit (purchased from Promega, Cat. No.: V9102) according to the manufacture's instruction, i.e., 10 μL of ADP-Glo reaction reagent was first added and reacted at 25° C. for 40 minutes, 10 μL of the reaction mixture was taken and mixed with 10 μL of ADP-Glo detection reagent, and reacted at 25° C. for 30 minutes. The kinase activity was then detected, and the IC50 values of the test drugs were calculated.

Chain of IRAK4 kinase (Q9NWZ3 whole entry): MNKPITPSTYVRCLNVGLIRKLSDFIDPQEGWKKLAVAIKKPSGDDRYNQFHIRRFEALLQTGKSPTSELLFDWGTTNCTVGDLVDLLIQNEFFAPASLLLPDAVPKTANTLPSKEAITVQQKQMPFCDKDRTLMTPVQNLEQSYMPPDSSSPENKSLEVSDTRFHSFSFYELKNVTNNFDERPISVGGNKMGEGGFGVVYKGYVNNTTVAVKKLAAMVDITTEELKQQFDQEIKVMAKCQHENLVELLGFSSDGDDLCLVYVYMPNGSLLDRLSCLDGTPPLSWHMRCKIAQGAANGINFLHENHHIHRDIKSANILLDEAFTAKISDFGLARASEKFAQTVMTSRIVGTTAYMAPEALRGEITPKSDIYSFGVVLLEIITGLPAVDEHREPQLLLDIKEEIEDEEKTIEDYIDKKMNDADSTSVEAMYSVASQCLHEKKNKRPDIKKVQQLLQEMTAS

SMILES	IC50 [nM]
Cc1cc(Nc2nc(O[C@H]3CCOC3)c3c(ccn3-c3cnn(C)c3)n2)sn1 [Example 64]	≤ 100
Cc1cc(Nc2nc(OC3CCOCC3)c3c(ccn3-c3cnn(C)c3)n2)sn1 [Example 74]	≤ 100
CNC(=O)c1csc(Nc2nc(O[C@H]3CCOC3)c3c(ccn3-c3cnn(C)c3)n2)c1 [Example 133]	≤ 100
CCNC(=O)c1csc(Nc2nc(O[C@H]3CCOC3)c3c(ccn3-c3cnn(C)c3)n2)c1 [Example 134]	≤ 100
Cn1cc(-n2ccc3nc(Nc4cc(C(=O)NC5CCOCC5)cs4)nc(O[C@H]4CCOC4)c32)cn1 [Example 148]	≤ 100
CN(C)C(=O)c1csc(Nc2nc(O[C@H]3CCOC3)c3c(ccn3-c3cnn(C)c3)n2)c1 [Example 149]	≤ 100
Cn1cc(-n2ccc3nc(Nc4cc(C(=O)N5CCCCC5)cs4)nc(O[C@H]4CCOC4)c32)cn1 [Example 150]	≤ 100
CN1CCN(C(=O)c2csc(Nc3nc(O[C@H]4CCOC4)c4c(ccn4-c4cnn(C)c4)n3)c2)CC1 [Example 151]	≤ 100
Cn1cc(-n2ccc3nc(Nc4cc(C(=O)N5CCOCC5)cs4)nc(O[C@H]4CCOC4)c32)cn1 [Example 152]	≤ 100
Cn1cc(-n2ccc3nc(Nc4cc(C(=O)N5CCSCC5)cs4)nc(O[C@H]4CCOC4)c32)cn1 [Example 153]	100 to 1000
Cn1cc(-n2ccc3nc(Nc4cc(C(=O)N5CCS(=O)(=O)CC5)cs4)nc(O[C@H]4CCOC4)c32)cn1 [Example 154]	≤ 100
CNC(=O)c1cc(Nc2nc(OCCOC)c3c(ccn3-c3cnn(C)c3)n2)cs1 [Example 155]	≤ 100
CCNC(=O)c1cc(Nc2nc(OCCOC)c3c(ccn3-c3cnn(C)c3)n2)cs1 [Example 156]	≤ 100
CNC(=O)c1cc(Nc2nc(O[C@@H]3CCOC3)c3c(ccn3-c3cnn(C)c3)n2)cs1 [Example 157]	≤ 100
CCNC(=O)c1cc(Nc2nc(O[C@@H]3CCOC3)c3c(ccn3-c3cnn(C)c3)n2)cs1 [Example 158]	≤ 100
CNC(=O)c1cc(Nc2nc(O[C@H]3CCOC3)c3c(ccn3-c3cnn(C)c3)n2)cs1 [Example 159]	≤ 100

SMILES	IC50 [nM]
CCNC(=O)c1cc(Nc2nc(O[C@H]3CCOC3)c3c(ccn3-c3cnn(C)c3)n2)cs1 [Example 160]	≤ 100
Cn1cc(-n2ccc3nc(Nc4csc(C(=O)NCCF)c4)nc(O[C@H]4CCOC4)c32)cn1 [Example 161]	≤ 100
CN1CCC(NC(=O)c2cc(Nc3nc(O[C@H]4CCOC4)c4c(ccn4-c4cnn(C)c4)n3)cs2)CC1 [Example 162]	≤ 100
CN(C)C(=O)c1cc(Nc2nc(O[C@H]3CCOC3)c3c(ccn3-c3cnn(C)c3)n2)cs1 [Example 163]	≤ 100
CNC(=O)c1ccc(Nc2nc(O[C@H]3CCOC3)c3c(ccn3-c3cnn(C)c3)n2)s1 [Example 164]	100 to 1000
CNC(=O)c1csc(Nc2nc(O[C@H]3CCOC3)c3c(ccn3-c3cnn(C)c3)n2)n1 [Example 165]	1000 to 10000
CNC(=O)c1cc(Nc2nc(O[C@H]3CCOC3)c3c(ccn3-c3cnn(C)c3)n2)sn1 [Example 166]	≤ 100
CNC(=O)c1csc(Nc2nc(OC3CCOCC3)c3c(ccn3-c3cnn(C)c3)n2)c1 [Example 167]	≤ 100
CCNC(=O)c1csc(Nc2nc(OC3CCOCC3)c3c(ccn3-c3cnn(C)c3)n2)c1 [Example 168]	≤ 100
Cn1cc(-n2ccc3nc(Nc4cc(C(=O)NCCF)cs4)nc(OC4CCOCC4)c32)cn1 [Example 169]	≤ 100
Cn1cc(-n2ccc3nc(Nc4cc(C(=O)NCC(F)F)cs4)nc(OC4CCOCC4)c32)cn1 [Example 170]	≤ 100
CN(C)C(=O)c1csc(Nc2nc(OC3CCOCC3)c3c(ccn3-c3cnn(C)c3)n2)c1 [Example 171]	≤ 100
CNC(=O)c1cc(Nc2nc(OC3CCOCC3)c3c(ccn3-c3cnn(C)c3)n2)cs1 [Example 172]	≤ 100
CCNC(=O)c1cc(Nc2nc(OC3CCOCC3)c3c(ccn3-c3cnn(C)c3)n2)cs1 [Example 173]	≤ 100
CN(C)C(=O)c1cc(Nc2nc(OC3CCOCC3)c3c(ccn3-c3cnn(C)c3)n2)cs1 [Example 174]	100 to 1000
Cn1cc(-n2ccc3nc(Nc4cc5n(c4)CCNC5=O)nc(OC4CCOCC4)c32)cn1 [Example 175]	100 to 1000

These compounds were tested on TMD-8 cells (assay: TMD-8 cell growth inhibition assay). Settings: Homo sapiens, TMD8, 96 hours, CCK-8.
Type: cell-based
Procedure: The compound of Example 64 and the compound of Example 74 of the invention were tested in TMD-8 cell growth inhibition assay. TMD-8 cells (available from Korea Hanmi Research Center) were cultured in RMPI-1640 medium (purchased from Gibco, Cat. No.: 22440) containing 10% fetal bovine serum (purchased from Gibco, Cat. No.: 10099-141). The TMD-8 cells in logarithmic growth phase were seeded in a 96-well plate at 20,000 cells/well/100 μL, and RMPI-1640 medium (100 μL) was added into blank control wells. The test samples were diluted with RMPI-1640 medium to 2 folds of the final concentration (10-fold dilutions starting from 10 μM, setting 6 drug concentrations, and testing in replicate wells at each concentration). The diluted test samples were added to test wells seeded with cells at 100 μL/well, and RMPI-1640 medium (100 μL) was separately added to the positive control and the blank control wells. The 96-well plate was placed in the incubator and reacted at 37° C., 5% CO2 for 96 hours. After the reaction was completed, the 96-well plate was taken from the incubator and to each well was added CCK-8 (100 μL) (purchased from DOJINDO, Cat. No.: CK04-11). Then the 96-well plate was put back to the incubator and incubated for another 2 hours.

SMILES	IC50 [nM]
Cc1cc(Nc2nc(O[C@H]3CCOC3)c3c(ccn3-c3cnn(C)c3)n2)sn1 [Example 64]	184
Cc1cc(Nc2nc(OC3CCOCC3)c3c(ccn3-c3cnn(C)c3)n2)sn1 [Example 74]	479

Each compound was assayed on LPS-induced TNF-α secretion in THP-1 cells (assay: LPS-induced TNF-α secretion assay in THP-1 cells). Settings: Homo sapiens, 24 hours, TNF-α ELISA.
Type: cell-based
Procedure: The compound of Example 133 and the compound of Example 134 of the invention were tested in LPS-induced TNF-α secretion assay in THP-1 cells. Human THP-1 cells (purchased from ATCC, Cat. No.: TIB-202) were cultured in RPMI-1640 medium (purchased from Gibco, Cat. No.: 22440) containing 10% fetal bovine serum (purchased from Gibco, Cat. No.: 10099-141) and 0.05 mM of 2-mercaptoethanol (purchased from Gibco, Cat. No.: 21985). The THP-1 cells in logarithmic growth phase were seeded in a 96-well plate at 2×10^5 cells/well/100 μL. The test samples were diluted with RMPI-1640 medium to 4 folds of the final concentration (5-fold dilutions starting from 10 μM, setting 6 drug concentrations, and testing in replicate wells at each concentration). The diluted test samples were added to the test wells seeded with cells at 50 μL/well, and RMPI-1640 medium (50 μL) was separately added to positive control and negative control wells. The 96-well plate was placed in the incubator at 37° C., 5% CO2 and pre-incubated for 2 hours. […] After incubation in the incubator at 37° C., 5% CO2 for 24 hours, the cell culture supernatant was taken and determined for the content of TNF-α in the supernatant using a human TNF-α ELISA kit (purchased from DKW, Cat. No.: 12-1720-096).

SMILES	IC50 [nM]
CNC(=O)c1csc(Nc2nc(O[C@H]3CCOC3)c3c(ccn3-c3cnn(C)c3)n2)c1 [Example 133]	161
CCNC(=O)c1csc(Nc2nc(O[C@H]3CCOC3)c3c(ccn3-c3cnn(C)c3)n2)c1 [Example 134]	311
